Test results from ChEMBL document CHEMBL5154753, “Discovery and Structural Optimization of Toddacoumalone Derivatives as Novel PDE4 Inhibitors for the Topical Treatment of Psoriasis” (J Med Chem, 2022).
Active and inactive are the calls of the source. The rule behind the calls is not given here.

Columns and labels:
[1] = target: cGMP-dependent 3',5'-cyclic phosphodiesterase (Homo sapiens, UniProt O00408); experiment: Inhibition of PDE2A (580 to 919 residues) (unknown origin) expressed in Escherichia coli BL21 using [3H-GMP] or [3H-AMP] as substrate incubated for 15 mins by liquid scintillation counting method
[2] = target: 3',5'-cyclic-AMP phosphodiesterase 4D (Homo sapiens, UniProt Q08499); experiment: Inhibition of PDE4D2 (86 to 413 residues) (unknown origin) expressed in Escherichia coli BL21 using [3H-GMP] or [3H-AMP] as substrate incubated for 15 mins by liquid scintillation counting method
[3] = target: High affinity 3',5'-cyclic-AMP phosphodiesterase 7A (Homo sapiens, UniProt Q13946); experiment: Inhibition of PDE7A1 (130 to 482 residues) (unknown origin) expressed in Escherichia coli BL21 using [3H-GMP] or [3H-AMP] as substrate incubated for 15 mins by liquid scintillation counting method
[4] = Toxicity in IMQ-induced BALB/c psoriasis mouse model assessed as body weight loss at 10 mg/kg, po for 7 days; format: organism-based; conditions: in vivo, 168 h, time 7 day
[5] = tested on: Mus musculus; experiment: Anti-psoriatic activity in IMQ-induced BALB/c psoriasis mouse model assessed as reduction in erythema score at 10 mg/kg, po for 7 days; format: functional, organism-based; conditions: time 7.0 day
[6] = Clearance in ICR mouse at 10 mg/kg, iv measured upto 24 hrs by LC-MS/MS analysis; format: ADME, organism-based; conditions: in vivo
[7] = target: Dual specificity calcium/calmodulin-dependent 3',5'-cyclic nucleotide phosphodiesterase 1B (Homo sapiens, UniProt Q01064); experiment: Inhibition of PDE1B (10 to 487 residues) (unknown origin) expressed in Escherichia coli BL21 using [3H-GMP] or [3H-AMP] as substrate incubated for 15 mins by liquid scintillation counting method
[8] = tested on: RAW264.7; experiment: Anti-inflammatory activity against mouse RAW264.7 cells assessed as decrease in LPS-induced IL-6 mRNA levels incubated for 4 hrs followed LPS-stimulation for 24 hrs by SYBR green staining based qRT-PCR analysis; format: functional, cell-based; conditions: time 28.0 hrs, DDE = dose-dependent effect
[9] = Toxicity in BALB/c mouse assessed as body weight loss at 62.5 mg as 4% ointment, TOP daily and measured upto 7 days; conditions: in vivo, topical_or_ocular, 168 h, time < 7 day
[10] = tested on: Mus musculus; experiment: Anti-psoriatic activity in IMQ-induced BALB/c psoriasis mouse model assessed as reduction in total clinical score at 10 mg/kg, po for 7 days; format: functional, organism-based; conditions: time 7.0 day
[11] = target: High affinity cGMP-specific 3',5'-cyclic phosphodiesterase 9A (Homo sapiens, UniProt O76083); experiment: Inhibition of PDE9A2 (181 to 506 residues) (unknown origin) expressed in Escherichia coli BL21 using [3H-GMP] or [3H-AMP] as substrate incubated for 15 mins by liquid scintillation counting method
[12] = Half life in ICR mouse at 10 mg/kg, iv measured upto 24 hrs by LC-MS/MS analysis; format: ADME, organism-based; conditions: in vivo
[13] = Stability in human liver microsomes assessed as half life measure upto 45 mins in presence of NADPH by LC-MS analysis; format: ADME, Microsome
[14] = target: cGMP-specific 3',5'-cyclic phosphodiesterase (Homo sapiens, UniProt O76074); experiment: Inhibition of PDE5A1 (535 to 860 residues) (unknown origin) expressed in Escherichia coli BL21 using [3H-GMP] or [3H-AMP] as substrate incubated for 15 mins by liquid scintillation counting method
[15] = AUC (0 to t) in ICR mouse at 30 mg/kg, po measured upto 24 hrs by LC-MS/MS analysis; format: ADME, organism-based; design: time < 24 hrs, dose 30 mg/kg, route po; conditions: in vivo
[16] = Tmax in ICR mouse at 30 mg/kg, po measured upto 24 hrs by LC-MS/MS analysis; format: ADME, organism-based; conditions: in vivo
[17] = Stability in rat liver microsomes assessed as half life measure upto 45 mins in presence of NADPH by LC-MS analysis; format: ADME, Microsome
[18] = Half life in ICR mouse at 30 mg/kg, po measured upto 24 hrs by LC-MS/MS analysis; format: ADME, organism-based; conditions: in vivo
[19] = Cmax in ICR mouse at 30 mg/kg, po measured upto 24 hrs by LC-MS/MS analysis; format: ADME, organism-based; design: time < 24 hrs, dose 30 mg/kg, route po; conditions: in vivo
[20] = organism: Mus musculus; experiment: Anti-psoriatic activity in IMQ-induced BALB/c psoriasis mouse model assessed as reduction in scales score at 62.5 mg as 4% ointment, TOP daily and measured upto 7 days; format: functional, organism-based; conditions: time <= 7.0 day, DDE = dose-dependent effect
[21] = organism: Mus musculus; experiment: Anti-psoriatic activity in IMQ-induced BALB/c psoriasis mouse model assessed as reduction in dermal cell proliferation at 62.5 mg as 2% ointment, TOP daily for 7 days by Ki67+ expression based immunohistochemistry analysis; format: functional, organism-based; conditions: time 7.0 day
[22] = target: Voltage-gated inwardly rectifying potassium channel KCNH2 (Homo sapiens, UniProt Q12809); experiment: Inhibition of hERG by Q patch automated patch-clamp method; format: toxicity
Voltage-gated inwardly rectifying potassium channel KCNH2, sequence (Q12809 whole entry): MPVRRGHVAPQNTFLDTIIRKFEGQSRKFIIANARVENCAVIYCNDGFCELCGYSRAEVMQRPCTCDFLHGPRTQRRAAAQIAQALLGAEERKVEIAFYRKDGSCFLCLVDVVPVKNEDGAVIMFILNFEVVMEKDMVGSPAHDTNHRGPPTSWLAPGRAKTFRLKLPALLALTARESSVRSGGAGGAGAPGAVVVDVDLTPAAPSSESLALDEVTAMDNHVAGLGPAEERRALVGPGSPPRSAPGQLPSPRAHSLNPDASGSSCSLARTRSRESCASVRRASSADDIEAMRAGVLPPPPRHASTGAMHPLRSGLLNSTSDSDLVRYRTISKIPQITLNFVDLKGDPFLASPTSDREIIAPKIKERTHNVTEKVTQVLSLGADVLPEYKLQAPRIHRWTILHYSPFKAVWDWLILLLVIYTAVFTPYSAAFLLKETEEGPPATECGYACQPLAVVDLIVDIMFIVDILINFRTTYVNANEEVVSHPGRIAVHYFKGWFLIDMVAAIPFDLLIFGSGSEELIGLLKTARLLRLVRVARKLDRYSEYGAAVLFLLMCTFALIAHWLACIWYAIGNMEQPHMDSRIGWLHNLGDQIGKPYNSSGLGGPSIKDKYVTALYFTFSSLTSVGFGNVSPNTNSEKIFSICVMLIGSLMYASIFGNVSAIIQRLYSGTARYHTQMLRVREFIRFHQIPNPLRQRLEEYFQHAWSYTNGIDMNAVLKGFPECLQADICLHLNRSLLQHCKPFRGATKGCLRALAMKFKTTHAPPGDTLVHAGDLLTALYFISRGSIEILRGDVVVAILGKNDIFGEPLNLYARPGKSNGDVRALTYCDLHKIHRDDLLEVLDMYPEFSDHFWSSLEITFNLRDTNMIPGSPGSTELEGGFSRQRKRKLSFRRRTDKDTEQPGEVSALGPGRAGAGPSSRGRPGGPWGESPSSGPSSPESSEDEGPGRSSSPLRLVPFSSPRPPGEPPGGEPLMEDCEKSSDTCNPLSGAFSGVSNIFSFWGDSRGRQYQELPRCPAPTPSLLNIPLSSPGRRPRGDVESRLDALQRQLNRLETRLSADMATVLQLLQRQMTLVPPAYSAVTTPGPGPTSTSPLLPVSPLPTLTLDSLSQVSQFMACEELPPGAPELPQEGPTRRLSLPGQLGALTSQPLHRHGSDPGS

3',5'-cyclic-AMP phosphodiesterase 4D, sequence (Q08499 whole entry, the tested form may be a part): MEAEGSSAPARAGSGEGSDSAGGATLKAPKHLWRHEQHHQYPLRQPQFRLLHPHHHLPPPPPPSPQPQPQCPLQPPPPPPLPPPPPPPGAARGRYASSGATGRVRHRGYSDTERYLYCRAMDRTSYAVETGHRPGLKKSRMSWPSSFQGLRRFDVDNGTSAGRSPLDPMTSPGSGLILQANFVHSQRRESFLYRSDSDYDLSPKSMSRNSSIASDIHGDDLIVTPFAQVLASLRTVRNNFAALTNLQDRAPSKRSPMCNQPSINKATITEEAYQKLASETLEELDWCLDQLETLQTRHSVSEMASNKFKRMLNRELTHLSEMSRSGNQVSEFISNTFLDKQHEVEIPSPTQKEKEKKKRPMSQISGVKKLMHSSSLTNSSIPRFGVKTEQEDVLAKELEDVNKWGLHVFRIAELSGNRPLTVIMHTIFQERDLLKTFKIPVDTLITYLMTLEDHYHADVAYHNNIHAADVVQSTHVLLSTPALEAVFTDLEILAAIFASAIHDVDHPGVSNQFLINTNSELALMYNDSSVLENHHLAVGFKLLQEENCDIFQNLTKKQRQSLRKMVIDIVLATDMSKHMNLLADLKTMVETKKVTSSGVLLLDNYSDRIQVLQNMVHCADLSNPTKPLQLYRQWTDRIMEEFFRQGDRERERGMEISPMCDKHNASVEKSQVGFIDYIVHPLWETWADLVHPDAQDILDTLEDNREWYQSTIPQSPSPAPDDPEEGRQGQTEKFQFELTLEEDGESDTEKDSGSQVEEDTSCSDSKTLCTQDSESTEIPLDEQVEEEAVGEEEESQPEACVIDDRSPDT
High affinity cGMP-specific 3',5'-cyclic phosphodiesterase 9A, sequence (O76083 whole entry, the tested form may be a part): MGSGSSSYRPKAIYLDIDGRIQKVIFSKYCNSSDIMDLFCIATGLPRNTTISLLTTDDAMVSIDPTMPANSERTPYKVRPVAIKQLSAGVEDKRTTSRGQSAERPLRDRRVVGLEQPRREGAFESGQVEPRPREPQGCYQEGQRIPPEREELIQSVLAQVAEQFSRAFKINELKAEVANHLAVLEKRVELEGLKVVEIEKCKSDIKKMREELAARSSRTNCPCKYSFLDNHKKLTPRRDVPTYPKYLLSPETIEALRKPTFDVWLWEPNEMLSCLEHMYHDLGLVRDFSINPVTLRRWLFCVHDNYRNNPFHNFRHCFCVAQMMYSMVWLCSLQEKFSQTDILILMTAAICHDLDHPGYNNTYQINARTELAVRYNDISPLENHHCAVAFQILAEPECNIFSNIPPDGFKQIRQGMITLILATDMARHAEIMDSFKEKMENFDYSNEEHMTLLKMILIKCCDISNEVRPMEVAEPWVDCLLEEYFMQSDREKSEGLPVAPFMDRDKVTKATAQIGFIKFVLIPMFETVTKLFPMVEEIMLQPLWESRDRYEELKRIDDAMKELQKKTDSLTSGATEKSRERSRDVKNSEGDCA
cGMP-dependent 3',5'-cyclic phosphodiesterase, sequence (O00408 whole entry, the tested form may be a part): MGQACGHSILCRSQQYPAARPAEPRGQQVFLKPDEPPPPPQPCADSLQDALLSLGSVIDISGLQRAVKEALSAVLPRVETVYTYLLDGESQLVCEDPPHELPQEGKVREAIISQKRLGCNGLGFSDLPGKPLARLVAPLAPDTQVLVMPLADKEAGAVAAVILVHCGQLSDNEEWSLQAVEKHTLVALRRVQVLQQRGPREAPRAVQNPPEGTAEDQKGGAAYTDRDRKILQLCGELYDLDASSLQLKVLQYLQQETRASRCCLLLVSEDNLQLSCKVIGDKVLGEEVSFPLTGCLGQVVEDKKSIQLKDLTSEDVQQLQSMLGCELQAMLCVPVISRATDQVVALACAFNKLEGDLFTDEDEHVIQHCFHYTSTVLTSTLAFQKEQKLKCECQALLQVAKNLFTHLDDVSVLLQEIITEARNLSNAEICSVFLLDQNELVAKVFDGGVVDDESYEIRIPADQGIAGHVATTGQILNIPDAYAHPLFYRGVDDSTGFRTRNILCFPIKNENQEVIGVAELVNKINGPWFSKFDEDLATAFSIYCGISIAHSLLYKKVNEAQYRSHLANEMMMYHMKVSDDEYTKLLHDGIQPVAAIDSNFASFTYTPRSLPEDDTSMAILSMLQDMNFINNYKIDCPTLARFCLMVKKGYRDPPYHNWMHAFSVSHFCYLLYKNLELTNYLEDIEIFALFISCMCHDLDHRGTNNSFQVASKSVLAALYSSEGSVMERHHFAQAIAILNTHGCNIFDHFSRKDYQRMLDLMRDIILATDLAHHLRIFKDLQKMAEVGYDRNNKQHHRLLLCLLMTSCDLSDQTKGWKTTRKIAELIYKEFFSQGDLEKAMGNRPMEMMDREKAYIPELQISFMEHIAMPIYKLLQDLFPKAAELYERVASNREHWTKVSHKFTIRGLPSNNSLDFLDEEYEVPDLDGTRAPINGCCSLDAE
Dual specificity calcium/calmodulin-dependent 3',5'-cyclic nucleotide phosphodiesterase 1B, sequence (Q01064 whole entry, the tested form may be a part): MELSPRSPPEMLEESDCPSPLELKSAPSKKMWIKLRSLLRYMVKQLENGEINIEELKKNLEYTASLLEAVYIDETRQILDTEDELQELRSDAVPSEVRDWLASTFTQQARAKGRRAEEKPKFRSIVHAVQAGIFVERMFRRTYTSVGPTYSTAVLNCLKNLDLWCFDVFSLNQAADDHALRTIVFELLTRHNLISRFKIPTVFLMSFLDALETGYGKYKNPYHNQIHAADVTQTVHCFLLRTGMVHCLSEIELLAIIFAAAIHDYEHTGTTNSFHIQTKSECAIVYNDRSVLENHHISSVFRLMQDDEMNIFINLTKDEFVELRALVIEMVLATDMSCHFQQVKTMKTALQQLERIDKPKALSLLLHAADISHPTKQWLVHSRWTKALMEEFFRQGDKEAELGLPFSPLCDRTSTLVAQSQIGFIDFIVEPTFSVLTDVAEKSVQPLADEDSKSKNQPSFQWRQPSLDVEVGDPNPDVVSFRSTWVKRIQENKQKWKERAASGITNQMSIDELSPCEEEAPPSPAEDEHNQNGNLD
High affinity 3',5'-cyclic-AMP phosphodiesterase 7A, sequence (Q13946 whole entry, the tested form may be a part): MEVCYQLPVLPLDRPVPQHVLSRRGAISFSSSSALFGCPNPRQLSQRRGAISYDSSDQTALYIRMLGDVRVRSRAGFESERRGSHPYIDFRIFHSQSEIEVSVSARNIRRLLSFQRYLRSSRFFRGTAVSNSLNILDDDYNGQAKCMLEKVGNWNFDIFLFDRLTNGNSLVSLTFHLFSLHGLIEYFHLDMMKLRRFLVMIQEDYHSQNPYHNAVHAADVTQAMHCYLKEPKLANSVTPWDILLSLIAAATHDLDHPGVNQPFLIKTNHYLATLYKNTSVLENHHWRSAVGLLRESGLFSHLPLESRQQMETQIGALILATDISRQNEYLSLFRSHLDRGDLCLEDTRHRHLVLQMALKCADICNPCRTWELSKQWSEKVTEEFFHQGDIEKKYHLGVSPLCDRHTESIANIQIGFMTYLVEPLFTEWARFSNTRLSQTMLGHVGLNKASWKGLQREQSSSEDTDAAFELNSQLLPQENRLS

CCn1c(=O)c2c(c3ccc(C)nc31)O[C@@](C)(CCO)C[C@H]2C=C(C)C
IC50 [1]: 1510 nM
IC50 [2]: 3.1 nM
IC50 [3]: 2130 nM
Activity [4]: Non-Toxic
Activity [5]: Active
clearance [6]: 63.8 mL/min/kg
IC50 [7]: > 10000 nM
Activity [8]: Dde
Activity [9]: Non-Toxic
Activity [10]: Active
IC50 [11]: > 10000 nM
half-life [12]: 55.2 min
half-life [13]: 0.9 min
IC50 [14]: 4250 nM
AUC(0-t) at 24 h [15]: 1130 ng·h/mL
Tmax [16]: 60 min
half-life [17]: 2.9 min
half-life [18]: 109 min
Cmax [19]: 391 ng/mL
Activity [20]: Dde
Activity [21]: Active
IC50 [22]: > 50000 nM
